Laboratory results published in ChEMBL document CHEMBL4665708, “Generation of Stilbene Antimicrobials against Multiresistant Strains of Staphylococcus aureus through Biotransformation by the Enzymatic Secretome of Botrytis cinerea” (J Nat Prod, 2020).
Converted amounts (≈) assume the structure as drawn. The source made the active and inactive calls. The rule behind the calls is not given here.

Assays:
[1] = Selectivity ratio of IC50 for human MCF-10A cells to MIC for methicillin-resistant Staphylococcus aureus ATCC 33591; format: toxicity
MCF-10A = test: Cytotoxicity against human MCF-10A cells after 3 days by microplate reader analysis; format: cell-based; details: 72 h
HepG2 = test: Cytotoxicity against human HepG2 cells after 3 days by microplate reader analysis; format: cell-based; details: HepG2, 72 h
Pseudomonas aeruginosa = test: Antimicrobial activity against Pseudomonas aeruginosa ATCC 27853 at 256 ug/ml after 24 hrs by broth microdilution assay; format: functional, organism-based; details: dose 256.0 µg/ml
Staphylococcus aureus [2] = test: Antimicrobial activity against methicillin-resistant Staphylococcus aureus ATCC 33591 after 24 hrs by broth microdilution method; format: functional
[3] = Selectivity ratio of IC50 for human MCF-10A cells to MIC for vancomyicin-resistant Staphylococcus aureus 510; format: toxicity
Staphylococcus aureus [4] = test: Antimicrobial activity against vancomycin-resistant Staphylococcus aureus 510 after 24 hrs by broth microdilution method; format: functional

Row | Structure (SMILES) | selectivity ratio [1] | IC50 (MCF-10A) | IC50 (HepG2) | Activity (Pseudomonas aeruginosa) | MIC (Staphylococcus aureus [2]) | selectivity ratio [3] | MIC (Staphylococcus aureus [4])
1 | COc1cc(/C=C/c2ccc3c(c2)[C@H](c2cc(OC)cc(OC)c2)[C@@H](c2ccc(O)cc2)O3)cc(OC)c1 | < 0.1 | 25 µM | 29 µM | inactive | > 251 µM |  | 
2 | COC(c1ccc(O)cc1)[C@@H]1c2cc(O)cc(O)c2[C@H](c2ccc(O)cc2)[C@H]1c1cc(O)cc(O)c1 (some centres undefined) |  |  |  | inactive | > 263 µM |  | 
3 | COc1cc(OC)c2c(c1)[C@H]1[C@H](c3ccc(O)cc3)c3c(OC)cc(OC)cc3[C@H]1[C@@H]2c1ccc(O)cc1 | 0.7 | 24 µM | 22 µM | inactive | 31 µM (≈ 15.8 µg/mL) |  | 
4 | COc1cc(/C=C/c2ccc(OC(c3cc(OC)cc(OC)c3)C(O)c3ccc(O)cc3)cc2)cc(OC)c1 (centres undefined) |  |  |  | inactive | > 242 µM |  | 
5 | Oc1ccc([C@H]2Oc3ccc(/C=C/c4cc(O)cc(O)c4)cc3[C@@H]2c2cc(O)cc(O)c2)cc1 (relative stereo) | 1.4 | 48 µM | 48 µM | inactive | 35 µM (≈ 15.9 µg/mL) |  | 
6 | COc1cc(/C=C/c2ccc3c(c2)[C@H](c2cc(O)cc(O)c2)[C@@H](c2ccc(O)cc2)O3)cc(OC)c1 | 32 | 66 µM | 27 µM | inactive | 22 µM (≈ 10.6 µg/mL) | 32 | 2 µM (≈ 0.965 µg/mL)
7 | COc1cc(OC)cc([C@@H](C(OC)OC)[C@@H](c2cc(O)cc(O)c2)C(c2ccc(O)cc2)c2ccc(O)cc2)c1 |  |  |  | inactive | > 234 µM |  | 
8 | CN[C@H](CC(C)C)C(=O)N[C@H]1C(=O)N[C@@H](CC(N)=O)C(=O)N[C@H]2C(=O)N[C@H]3C(=O)N[C@H](C(=O)N[C@H](C(=O)O)c4cc(O)cc(O)c4-c4cc3ccc4O)[C@H](O)c3ccc(c(Cl)c3)Oc3cc2cc(c3O[C@@H]2O[C@H](CO)[C@@H](O)[C@H](O)[C@H]2O[C@H]2C[C@](C)(N)[C@H](O)[C@H](C)O2)Oc2ccc(cc2Cl)[C@H]1O [VANCOMYCIN] |  |  |  | inactive | 0.69 µM (≈ 1 µg/mL) |  | 22 µM (≈ 31.9 µg/mL)
9 | COc1cc(OC)cc([C@@H]2[C@@H](c3ccc(O)cc3)c3c(O)cc(O)cc3[C@H]2C(O)c2ccc(O)cc2)c1 (some centres undefined) |  |  |  | inactive | > 256 µM |  | 
10 | COc1cc(/C=C/c2ccc(O)cc2)cc(OC)c1 [PTEROSTILBENE] |  |  |  | inactive | 31 µM (≈ 7.95 µg/mL) |  | 
11 | COc1cc(OC)cc([C@@H]2[C@@H](c3ccc(O)cc3)c3c(OC)cc(OC)cc3[C@H]2[C@H](O)c2ccc(O)cc2)c1 |  |  |  | inactive | 121 µM (≈ 64 µg/mL) |  | 
12 | COc1cccc2c1C(=O)c1c(O)c3c(c(O)c1C2=O)C[C@@](O)(C(=O)CO)C[C@@H]3O[C@H]1C[C@H](N)[C@H](O)[C@H](C)O1 [DOXORUBICIN] |  | 0.31 µM | 1.18 µM |  |  |  | 
13 | COc1cc(OC)cc([C@@H]2[C@@H](c3cc(OC)cc(OC)c3)[C@H](c3ccc(O)cc3)O[C@@H]2c2ccc(O)cc2)c1 |  | > 95 µM | > 95 µM | inactive | 121 µM (≈ 64 µg/mL) |  | 
14 | COc1cc(OC)cc([C@H]2c3cc(/C=C/c4cc(O)cc(O)c4)ccc3O[C@@H]2c2ccc(O)cc2)c1 (relative stereo) | 7.2 | 29 µM | 27 µM | inactive | 4 µM (≈ 1.93 µg/mL) | 7.2 | 4 µM (≈ 1.93 µg/mL)
15 | COc1cc(OC)c2c(c1)[C@@H]([C@@H](OC)c1ccc(O)cc1)[C@H](c1cc(O)cc(O)c1)[C@H]2c1ccc(O)cc1 |  |  |  | inactive | > 249 µM |  | 
16 | COc1cc(OC)cc(C(Oc2ccc(/C=C/c3cc(O)cc(O)c3)cc2)C(OC)c2ccc(O)cc2)c1 (centres undefined) | 0.4 | 23 µM | 29 µM | inactive | 62 µM (≈ 31.9 µg/mL) |  | 
17 | Oc1ccc([C@@H]2c3c(O)cc(O)cc3[C@H]3[C@H](c4ccc(O)cc4)c4c(O)cc(O)cc4[C@@H]23)cc1 [PALLIDOL] |  |  |  | inactive | > 282 µM |  | 
18 | Oc1ccc(/C=C/c2cc(O)cc(O)c2)cc1 [RESVERATROL] |  |  |  | inactive | > 561 µM |  | 
19 | COc1cc(/C=C/c2ccc(OC(c3cc(O)cc(O)c3)C(OC)c3ccc(O)cc3)cc2)cc(OC)c1 (racemic) | 3.4 | 27 µM | 23 µM | inactive | 8 µM (≈ 4.12 µg/mL) | 6.9 | 4 µM (≈ 2.06 µg/mL)
20 | COc1cc(OC)cc(C(C(OC)OC)C(c2cc(OC)cc(OC)c2)C(c2ccc(O)cc2)c2ccc(O)cc2)c1 (centres undefined) | 1.4 | 19 µM | 19 µM | inactive | 14 µM (≈ 8.05 µg/mL) |  | 
21 | COc1cc(OC)cc([C@@H]2[C@@H](c3ccc(O)cc3)c3c(OC)cc(OC)cc3[C@H]2[C@@H](OC)c2ccc(O)cc2)c1 | 1.1 | 17 µM | 15 µM | inactive | 15 µM (≈ 8.14 µg/mL) |  | 
22 | COc1cc(OC)cc([C@@H]2[C@@H](c3ccc(O)cc3)c3c(OC)cc(OC)cc3[C@H]2[C@@H](O)c2ccc(O)cc2)c1 |  |  |  | inactive | 121 µM (≈ 64 µg/mL) |  | 
23 | COc1cc(OC)cc([C@@H]2[C@@H](c3ccc(O)cc3)c3c(O)cc(O)cc3[C@H]2[C@@H](OC)c2ccc(O)cc2)c1 |  |  |  | inactive | > 249 µM |  | 
24 | COc1cc(OC)cc([C@@H]2[C@@H](c3ccc(O)cc3)c3c(O)cc(O)cc3[C@H]2[C@H](OC)c2ccc(O)cc2)c1 |  |  |  | inactive | > 249 µM |  | 
